In patent US9393221B2, “Methods and compounds for reducing intracellular lipid storage” (THE GENERAL HOSPITAL CORPORATION, priority 2011, dated 2016):
Structures can show the parent of a compound that is named as a salt.

test system: ATGL-KO iPSCs; experiment: High throughput iPSC chemical screening, Oil Red O (ORO) lipid accumulation; assay type: cell-based, mouse; conditions: glycolytic switch compounds; on Z-score: test concentration or dose not given here

Compound	Rank in normalized ORO score from screen
CN1CCC[C@@H]1CCO[C@](C)(c1ccccc1)c1ccc(Cl)cc1 [Clemastine fumarate]	197
CN(C)CC/C=C1/c2ccccc2Sc2ccc(Cl)cc21 [Chlorprothixene hydrochloride]	223

same assay, conditions: normalized ORO level vs DMSO-treated cells; compound present during 7 days differentiation, 96-well; negative = decrease in lipid accumulation

Compound	Z-score
Oc1c(I)cc(Cl)c2cccnc12 [Clioquinol]	−1.5195
N#Cc1ccc(C(c2ccc(C#N)cc2)n2cncn2)cc1 [Letrozole]	0.6693
Pridinol methanesulfonate salt	1.97
CC(C)NCC(O)COc1cccc2ccccc12 (centres unmarked) [Propranolol hydrochloride]	2.05
O=C(CCCCC(=O)Nc1c(I)cc(I)c(C(=O)O)c1I)Nc1c(I)cc(I)c(C(=O)O)c1I [Iodipamide]	−0.3225
Cc1ccc(N(CC2=NCCN2)c2cccc(O)c2)cc1 [Phentolamine hydrochloride]	0.3245
Cc1nnc(NS(=O)(=O)c2ccc(N)cc2)s1 [Sulfamethizole]	−0.7734
O=C(O)CCCC[C@@H]1SC[C@@H]2NC(=O)N[C@@H]21 [Biotin]	0.1016
OC(CCN1CCCC1)(c1ccccc1)C1CCCCC1 (centres unmarked) [Procyclidine hydrochloride]	−0.6071
C[C@@H]1C[C@@H]([C@H](O)CC2CC(=O)NC(=O)C2)C(=O)[C@@H](C)C1 [Cycloheximide]	56.1385
CC(CCc1ccc(O)cc1)NCCc1ccc(O)c(O)c1 (centres unmarked) [Dobutamine hydrochloride]	−0.4732
C[C@@H]1O[C@@H](O[C@H]2C[C@@H](O)[C@]3(CO)[C@H]4[C@H](O)C[C@]5(C)[C@@H](C6=CC(=O)OC6)CC[C@]5(O)[C@@H]4CC[C@]3(O)C2)[C@H](O)[C@H](O)[C@H]1O.O.O.O.O.O.O.O.O [Strophantine octahydrate]	3.188
CCOC(=O)[C@@](C)(N)Cc1ccc(O)c(O)c1 [Methyldopate hydrochloride]	0.5054
CC1(C)S[C@@H]2[C@H](NC(=O)[C@H](N)c3ccccc3)C(=O)N2[C@H]1C(=O)O [Ampicillin trihydrate]	−1.3793
CN(CCCCCCCCCCN(C)C(=O)Oc1cccc([N+](C)(C)C)c1)C(=O)Oc1cccc([N+](C)(C)C)c1 [Demecarium bromide]	−0.6009
CN1CCC[C@@H]1CCO[C@](C)(c1ccccc1)c1ccc(Cl)cc1 [Clemastine fumarate]	−1.0269
C[C@@H]1NCCc2cc(O)c(O)cc21 [Salsolinol hydrobromide]	0.8772
Clc1ccc2c(c1)C(N1CCNCC1)=Nc1ccccc1O2 [Amoxapine]	−0.8161
COc1ccc(C(=O)OC2C[C@H]3CC[C@@H](C2)N3C)cc1OC.Cl (some centres unmarked) [Convolamine hydrochloride]	−1.0829
CCCc1ncc(C[n+]2ccccc2C)c(N)n1 [Amprolium hydrochloride]	0.8329
Cc1cc(C(C)(C)C)c(O)c(C)c1CC1=NCCN1 [Oxymetazoline hydrochloride]	0.1199
CC[N+](CC)(CC(=O)Nc1c(C)cccc1C)Cc1ccccc1 [Denatonium benzoate]	−0.1971
CC(C)[N+](C)(CCC(C(N)=O)(c1ccccc1)c1ccccc1)C(C)C [Isopropamide iodide]	−0.2928
O=C(C1CCCCC1)N1CC(=O)N2CCc3ccccc3C2C1 (centres unmarked) [Praziquantel]	−0.5159

Compound	Z-score
CCC1(c2ccc(N)cc2)CCC(=O)NC1=O (centres unmarked) [Glutethimide, para-amino]	0.2858
Clc1ccc(COC(Cn2ccnc2)c2ccc(Cl)cc2Cl)c(Cl)c1 (centres unmarked) [Miconazole]	−0.018
Cc1cc(CC(=O)O)n(C)c1C(=O)c1ccc(Cl)cc1 [Zomepirac sodium salt]	0.8794
C[C@H](CCC(=O)O)[C@H]1CC[C@H]2[C@@H]3[C@@H](O)C[C@@H]4C[C@H](O)CC[C@]4(C)[C@H]3CC[C@]12C [Urosiol]	0.02187
CCOC(=O)c1ccc(N)cc1 [Benzocaine]	1.149
CCOc1ccc2ccccc2c1C(=O)N[C@@H]1C(=O)N2[C@@H]1SC(C)(C)[C@@H]2C(=O)O [Nafcillin sodium salt monohydrate]	−0.1498
COc1ccccc1OCC(O)CO (centres unmarked) [Guaifenesin]	0.144
CN(N=O)C(=O)N[C@H]1C(O)O[C@H](CO)[C@@H](O)[C@@H]1O (mixture of isomers) [Streptozotocin]	0.0088
NC(=O)OCC(O)COc1ccc(Cl)cc1 (centres unmarked) [Chlorphensin carbamate]	0.4583
C[C@H](CCC(=O)O)[C@H]1CC[C@H]2[C@@H]3[C@H](O)C[C@@H]4C[C@H](O)CC[C@]4(C)[C@H]3CC[C@]12C [Chenodiol]	−1.6767
Cc1cn([C@H]2C[C@H](N=[N+]=[N-])[C@@H](CO)O2)c(=O)[nH]c1=O [Zidovudine, AZT]	−0.4063
CC[N+](C)(C)Cc1ccccc1Br [Bretylium tosylate]	1.9055
CCN1C[C@]2(COC)[C@H](O)C[C@H](OC)[C@@]34[C@@H]5C[C@@]6(O)[C@H](OC(=O)c7ccccc7)[C@@H]5[C@@](OC(C)=O)([C@@H]([C@H](OC)[C@H]23)[C@@H]14)[C@@H](O)[C@@H]6OC [Aconitine]	0.7907
CO[C@H]1/C=C/O[C@@]2(C)Oc3c(C)c(O)c4c(c3C2=O)C2=NC3(CCN(CC(C)C)CC3)NC2=C(NC(=O)/C(C)=C\C=C\[C@H](C)[C@H](O)[C@@H](C)[C@@H](O)[C@@H](C)[C@H](OC(C)=O)[C@@H]1C)C4=O [Rifabutin]	1.521
CN(C)CCCN1c2ccccc2CCc2ccccc21 [Imipramine hydrochloride]	1.459
CC/C(=C(/CC)c1ccc(O)cc1)c1ccc(O)cc1 [Diethylstilbestrol]	−0.977
Cc1cccc(C)c1N=C1NCCCS1 [Xylazine]	−1.0585
CCCCC1C(=O)N(c2ccccc2)N(c2ccc(O)cc2)C1=O (centres unmarked) [Oxyphenbutazone]	−1.1165
CC(=O)Nc1c(I)c(C(=O)N[C@H]2C(O)O[C@H](CO)[C@@H](O)[C@@H]2O)c(I)c(N(C)C(C)=O)c1I (some centres unmarked) [Metrizamide]	1.8943
CN(C)CCCO[C@@H]1[C@H]2OC(C)(C)O[C@H]2O[C@@H]1[C@H](O)CO [Amiprilose hydrochloride]	−0.6893
CC1(C)S[C@@H]2[C@H](NC(=O)[C@H](NC(=O)N3CCNC3=O)c3ccccc3)C(=O)N2[C@H]1C(=O)O [Azlocillin sodium salt]	−1.1617
CN(C)CC/C=C1/c2ccccc2Sc2ccc(Cl)cc21 [Chlorprothixene hydrochloride]	−0.9824
C=C(C)[C@@H]1CC[C@]2(C(=O)O)CC[C@]3(C)[C@H](CC[C@@H]4[C@@]5(C)CC[C@H](O)C(C)(C)[C@@H]5CC[C@]43C)[C@@H]12 [Betulinic acid]	0.4119
CC[N+](C)(CC)CCC[n+]1c(-c2ccccc2)c2cc(N)ccc2c2ccc(N)cc21.[I-].[I-] [Propidium iodide]	4.014

Compound	Z-score
CC(C)(Oc1ccc(C2CC2(Cl)Cl)cc1)C(=O)O (centres unmarked) [Ciprofibrate]	−0.5993
C[N+](C)(C)CCCCCCCCCC[N+](C)(C)C [Decamethonium bromide]	−0.0864
COc1c(C)c2c(c(O)c1C/C=C(\C)CCC(=O)O)C(=O)OC2 [Mycophenolic acid]	36.1922
CC(C)[N+](C)(CCOC(=O)C1c2ccccc2Oc2ccccc21)C(C)C [Propantheline bromide]	−0.9862
CN1CCc2cc3c(cc2C1O)OCO3 (centres unmarked) [Hydrastinine hydrochloride]	−0.5549
c1coc(CNc2ncnc3nc[nH]c23)c1 [6-Furfurylaminopurine]	0.2192
COc1c2c(cc3c1OCO3)CCN(C)C2 [Hydrocotarnine hydrobromide]	−0.8038
Cc1cc2nc3c(=O)[nH]c(=O)nc-3n(C[C@H](O)[C@H](O)[C@H](O)CO)c2cc1C [Riboflavine]	0.1165
COc1ccc2c3c1O[C@H]1C[C@@H](O)C=C[C@@]31CCN(C)C2 [Galanthamine hydrobromide]	−0.7931
COC(=O)Nc1nc2ccc(SC(C)C)cc2[nH]1 [Methiazole]	19.8245
NC[C@H]1O[C@H](O[C@H]2[C@H](O)[C@@H](O[C@H]3O[C@H](CO)[C@@H](O)[C@H](N)[C@H]3O)[C@H](N)C[C@@H]2N)[C@H](O)[C@@H](O)[C@@H]1O.O=S(=O)(O)O [Kanamycin A sulfate]	2.436
N[C@H]1CONC1=O [(S)-(−)-Cycloserine]	−0.4402
Nc1ncn([C@@H]2O[C@H](CO)[C@@H](O)[C@H]2O)c(=O)n1 [Azacytidine-5]	16.1728
CN(C)CCN(Cc1cccs1)c1ccccn1 [Methapyrilene hydrochloride]	−0.1861
NC(N)=NCCCCN=C(N)N [Arcaine sulfate]	0.3237
NC(=O)c1ccc[n+]([C@@H]2O[C@H](COP(=O)([O-])OP(=O)(O)OC[C@H]3O[C@@H](n4cnc5c(N)ncnc54)[C@H](O)[C@@H]3O)[C@@H](O)[C@H]2O)c1 [Nadide]	0.1385
COC(=O)[C@H]1[C@H]2C[C@@H]3c4[nH]c5cc(OC)ccc5c4CCN3C[C@H]2C[C@@H](OC(=O)/C=C/c2cc(OC)c(OC)c(OC)c2)[C@@H]1OC [Rescinnamin]	1.097
Nc1ccc(S(=O)(=O)c2ccc(N)cc2)cc1 [Dapsone]	−0.4061
CC(C)(C)NC[C@H](O)COc1cccc2c1CCCC2=O.Cl [(−)-Levobunolol hydrochloride]	−0.5665
C[n+]1cccc(C(=O)[O-])c1 [Trigonelline]	−1.518
CC(C)C[C@H]1C(=O)N2CCC[C@H]2[C@]2(O)O[C@](NC(=O)[C@@H]3C=C4c5cccc6[nH]cc(c56)C[C@H]4N(C)C3)(C(C)C)C(=O)N12 [Ergocryptine-alpha]	−0.2816
CC(=O)O[C@H]1C[C@@]2(C)[C@@H](C[C@@H](O)[C@H]3[C@@]4(C)CC[C@@H](O)[C@@H](C)[C@@H]4CC[C@@]32C)/C1=C(\CCC=C(C)C)C(=O)O [Fusidic acid sodium salt]	0.9973
CNCCC=C1c2ccccc2C=Cc2ccccc21 [Norcyclobenzaprine]	−0.6046
Nc1ncnc2c1ncn2[C@@H]1O[C@H](CO)[C@@H](O)[C@@H]1O [Vidarabine]	−0.443
